Where a SMILES comes first, the peptide text is derived from it. [ ]: non-standard residue; d: D form. The star is where a group is joined. Acryloyl(3-(3-pyridyl),E) = O=C(/C=C/c1cccnc1)*; 2Naphthoyl(6-OH) = O=C(c1ccc2cc(O)ccc2c1)*; Quinoline3carbonyl = O=C(c1cnc2ccccc2c1)*; X13 = O=C(c1ccc2cc(OS(=O)(=O)O)ccc2c1)*; X28 = O=C(/C=C\c1cccc(OS(=O)(=O)O)c1)*; Desaminotyrosyl = O=C(CCc1ccc(O)cc1)*; X15 = O=C(/C=C\c1ccc(C(F)(F)F)cc1)*; X22 = O=C(CCc1cccc(OS(=O)(=O)O)c1)*; Butanoyl(4-Ph) = O=C(CCCc1ccccc1)*; 1Naphthoyl = O=C(c1cccc2ccccc12)*; 2Naphthoyl = O=C(c1ccc2ccccc2c1)*; X24 = O=C(/C=C/c1c[nH]c2ccccc12)*; NMeF = CN[C@@H](Cc1ccccc1)C(=O)O; X2 = O=C(c1cc2cc(Cl)ccc2[nH]1)*; X31 = COc1ccc(/C=C\C(=O)*)cc1OC; X8 = COc1ccc2[nH]c(C(=O)*)cc2c1; X1 = O=C(/C=C\c1ccc(O)c(O)c1)*; X12 = O=C(c1cnc2cccc(O)c2c1)*; X21 = O=C(/C=C\c1ccc(Br)cc1)*; X11 = O=C(/C=C\c1ccc(O)cc1)*; X18 = O=C(c1cc2ccccc2[nH]1)*; X29 = O=C(/C=C\c1cccc(O)c1)*; X3 = O=C(/C=C/c1ccc(O)cc1)*; X16 = O=C(/C=C\c1ccccc1O)*; X19 = O=C(/C=C\c1ccccc1)*; Boc = CC(C)(C)OC(=O)*
How the values were obtained:
[1] = target: T1, Cholecystokinin receptor type A (Cavia porcellus, UniProt Q63931); experiment: Inhibition of specific binding of [125I]BH-CCK-8 in guinea pig pancreas.
T1 sequence (Q63931 whole entry): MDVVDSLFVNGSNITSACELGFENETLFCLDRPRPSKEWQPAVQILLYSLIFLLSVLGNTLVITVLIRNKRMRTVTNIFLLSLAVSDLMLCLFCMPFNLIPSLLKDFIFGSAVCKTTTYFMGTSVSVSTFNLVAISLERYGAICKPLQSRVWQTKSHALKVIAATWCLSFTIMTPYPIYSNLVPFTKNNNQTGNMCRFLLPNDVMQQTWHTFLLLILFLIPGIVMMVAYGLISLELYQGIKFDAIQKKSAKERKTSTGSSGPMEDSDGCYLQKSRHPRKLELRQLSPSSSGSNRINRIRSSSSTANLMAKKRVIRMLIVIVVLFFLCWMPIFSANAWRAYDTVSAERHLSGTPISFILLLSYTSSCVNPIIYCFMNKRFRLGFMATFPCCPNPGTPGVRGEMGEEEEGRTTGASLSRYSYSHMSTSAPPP

Cavia porcellus [2] = species on record: Cavia porcellus; experiment: Hydrolysis of phosphoinositide (PI) relative to maximal response elicited by CCK-8 in guinea pig pancreas.; assay type: functional
Cavia porcellus [3] = species on record: Cavia porcellus; experiment: Stimulation of amylase release in guinea pig pancreas; assay type: functional

IC50 [1] [nM]	EC50 (Cavia porcellus [3]) [nM]	Compound	Max (Cavia porcellus [2]) [%]
3.8	2.4	CN(C(=O)[C@H](CC(=O)O)NC(=O)[C@H](CCCCNC(=O)c1ccc2cc(O)ccc2c1)NC(=O)[C@H](Cc1c[nH]c2ccccc12)NC(=O)OC(C)(C)C)[C@@H](Cc1ccccc1)C(N)=O (Boc-WK(2Naphthoyl(6-OH))D[NMeF]-NH2)	52
14	4	CC(C)(C)OC(=O)N[C@@H](Cc1c[nH]c2ccccc12)C(=O)N[C@@H](CCCCNC(=O)c1ccc2ccccc2c1)C(=O)N[C@@H](CC(=O)O)C(=O)N[C@@H](Cc1ccccc1)C(N)=O (Boc-WK(2Naphthoyl)DF-NH2)	36
910	30000	CC(C)(C)OC(=O)N[C@@H](Cc1c[nH]c2ccccc12)C(=O)N[C@@H](CCCCNC(=O)CCCc1ccccc1)C(=O)N[C@@H](CC(=O)O)C(=O)N[C@@H](Cc1ccccc1)C(N)=O (Boc-WK(Butanoyl(4-Ph))DF-NH2)	19
22	59	CC(C)(C)OC(=O)N[C@@H](Cc1c[nH]c2ccccc12)C(=O)N[C@@H](CCCCNC(=O)/C=C\c1cccc(O)c1)C(=O)N[C@@H](CC(=O)O)C(=O)N[C@@H](Cc1ccccc1)C(N)=O (Boc-WK(X29)DF-NH2)	54
33	45	CC(C)(C)OC(=O)N[C@@H](Cc1c[nH]c2ccccc12)C(=O)N[C@@H](CCCCNC(=O)/C=C\c1ccc(O)c(O)c1)C(=O)N[C@@H](CC(=O)O)C(=O)N[C@@H](Cc1ccccc1)C(N)=O (Boc-WK(X1)DF-NH2)	66
39	20	CC(C)(C)OC(=O)N[C@@H](Cc1c[nH]c2ccccc12)C(=O)N[C@@H](CCCCNC(=O)c1cc2ccccc2[nH]1)C(=O)N[C@@H](CC(=O)O)C(=O)N[C@@H](Cc1ccccc1)C(N)=O (Boc-WK(X18)DF-NH2)	18
4.5	3.5	CC(C)(C)OC(=O)N[C@@H](Cc1c[nH]c2ccccc12)C(=O)N[C@@H](CCCCNC(=O)c1ccc2cc(O)ccc2c1)C(=O)N[C@@H](CC(=O)O)C(=O)N[C@@H](Cc1ccccc1)C(N)=O (Boc-WK(2Naphthoyl(6-OH))DF-NH2)	50
110	62	CC(C)(C)OC(=O)N[C@@H](Cc1c[nH]c2ccccc12)C(=O)N[C@@H](CCCCNC(=O)c1cc2cc(Cl)ccc2[nH]1)C(=O)N[C@@H](CC(=O)O)C(=O)N[C@@H](Cc1ccccc1)C(N)=O (Boc-WK(X2)DF-NH2)	27
[…]	3	CN(C(=O)[C@H](CC(=O)O)NC(=O)[C@H](CCCCNC(=O)/C=C/c1ccc(O)cc1)NC(=O)[C@H](Cc1c[nH]c2ccccc12)NC(=O)OC(C)(C)C)[C@@H](Cc1ccccc1)C(N)=O (Boc-WK(X3)D[NMeF]-NH2)	76
30	32	CN(C(=O)[C@H](CC(=O)O)NC(=O)[C@H](CCCCNC(=O)CCc1ccc(O)cc1)NC(=O)[C@H](Cc1c[nH]c2ccccc12)NC(=O)OC(C)(C)C)[C@@H](Cc1ccccc1)C(N)=O (Boc-WK(Desaminotyrosyl)D[NMeF]-NH2)	77
28	28	CN(C(=O)[C@H](CC(=O)O)NC(=O)[C@H](CCCCNC(=O)/C=C/c1cccnc1)NC(=O)[C@H](Cc1c[nH]c2ccccc12)NC(=O)OC(C)(C)C)[C@@H](Cc1ccccc1)C(N)=O (Boc-WK(Acryloyl(3-(3-pyridyl),E))D[NMeF]-NH2)	74
140	38	CC(C)(C)OC(=O)N[C@@H](Cc1c[nH]c2ccccc12)C(=O)N[C@@H](CCCCNC(=O)/C=C\c1ccc(Br)cc1)C(=O)N[C@@H](CC(=O)O)C(=O)N[C@@H](Cc1ccccc1)C(N)=O (Boc-WK(X21)DF-NH2)	72
40	17	COc1ccc(/C=C\C(=O)NCCCC[C@H](NC(=O)[C@H](Cc2c[nH]c3ccccc23)NC(=O)OC(C)(C)C)C(=O)N[C@@H](CC(=O)O)C(=O)N[C@@H](Cc2ccccc2)C(N)=O)cc1OC (Boc-WK(X31)DF-NH2)	61
7.7	2.3	CC(C)(C)OC(=O)N[C@@H](Cc1c[nH]c2ccccc12)C(=O)N[C@@H](CCCCNC(=O)c1cnc2cccc(O)c2c1)C(=O)N[C@@H](CC(=O)O)C(=O)N[C@@H](Cc1ccccc1)C(N)=O (Boc-WK(X12)DF-NH2)	45
57	79	CC(C)(C)OC(=O)N[C@@H](Cc1c[nH]c2ccccc12)C(=O)N[C@@H](CCCCNC(=O)c1cccc2ccccc12)C(=O)N[C@@H](CC(=O)O)C(=O)N[C@@H](Cc1ccccc1)C(N)=O (Boc-WK(1Naphthoyl)DF-NH2)	61

Continued, molecule first:

Compound	IC50 [1] [nM]	EC50 (Cavia porcellus [3]) [nM]	Max (Cavia porcellus [2]) [%]
CC(C)(C)OC(=O)N[C@@H](Cc1c[nH]c2ccccc12)C(=O)N[C@@H](CCCCNC(=O)/C=C/c1cccnc1)C(=O)N[C@@H](CC(=O)O)C(=O)N[C@@H](Cc1ccccc1)C(N)=O (Boc-WK(Acryloyl(3-(3-pyridyl),E))DF-NH2)	21	38	60
CC(C)(C)OC(=O)N[C@@H](Cc1c[nH]c2ccccc12)C(=O)N[C@@H](CCCCNC(=O)CCc1cccc(OS(=O)(=O)O)c1)C(=O)N[C@@H](CC(=O)O)C(=O)N[C@@H](Cc1ccccc1)C(N)=O (Boc-WK(X22)DF-NH2)	180	69	50
CC(C)(C)OC(=O)N[C@@H](Cc1c[nH]c2ccccc12)C(=O)N[C@@H](CCCCNC(=O)/C=C\c1cccc(OS(=O)(=O)O)c1)C(=O)N[C@@H](CC(=O)O)C(=O)N[C@@H](Cc1ccccc1)C(N)=O (Boc-WK(X28)DF-NH2)	39	25	70
CC(C)(C)OC(=O)N[C@@H](Cc1c[nH]c2ccccc12)C(=O)N[C@@H](CCCCNC(=O)/C=C\c1ccccc1O)C(=O)N[C@@H](CC(=O)O)C(=O)N[C@@H](Cc1ccccc1)C(N)=O (Boc-WK(X16)DF-NH2)	110	210	54
COc1ccc2[nH]c(C(=O)NCCCC[C@H](NC(=O)[C@H](Cc3c[nH]c4ccccc34)NC(=O)OC(C)(C)C)C(=O)N[C@@H](CC(=O)O)C(=O)N[C@@H](Cc3ccccc3)C(N)=O)cc2c1 (Boc-WK(X8)DF-NH2)	52	16	21
CC(C)(C)OC(=O)N[C@@H](Cc1c[nH]c2ccccc12)C(=O)N[C@@H](CCCCNC(=O)/C=C/c1c[nH]c2ccccc12)C(=O)N[C@@H](CC(=O)O)C(=O)N[C@@H](Cc1ccccc1)C(N)=O (Boc-WK(X24)DF-NH2)	19	30	55
CC(C)(C)OC(=O)N[C@@H](Cc1c[nH]c2ccccc12)C(=O)N[C@@H](CCCCNC(=O)/C=C\c1ccc(O)cc1)C(=O)N[C@@H](CC(=O)O)C(=O)N[C@@H](Cc1ccccc1)C(N)=O (Boc-WK(X11)DF-NH2)	16	3.9	76
CC(C)(C)OC(=O)N[C@@H](Cc1c[nH]c2ccccc12)C(=O)N[C@@H](CCCCNC(=O)c1cnc2ccccc2c1)C(=O)N[C@@H](CC(=O)O)C(=O)N[C@@H](Cc1ccccc1)C(N)=O (Boc-WK(Quinoline3carbonyl)DF-NH2)	33	39	46
CC(C)(C)OC(=O)N[C@@H](Cc1c[nH]c2ccccc12)C(=O)N[C@@H](CCCCNC(=O)/C=C\c1ccccc1)C(=O)N[C@@H](CC(=O)O)C(=O)N[C@@H](Cc1ccccc1)C(N)=O (Boc-WK(X19)DF-NH2)	55	30	52
CC(C)(C)OC(=O)N[C@@H](Cc1c[nH]c2ccccc12)C(=O)N[C@@H](CCCCNC(=O)c1ccc2cc(OS(=O)(=O)O)ccc2c1)C(=O)N[C@@H](CC(=O)O)C(=O)N[C@@H](Cc1ccccc1)C(N)=O (Boc-WK(X13)DF-NH2)	2.9	3.5	49
CC(C)(C)OC(=O)N[C@@H](Cc1c[nH]c2ccccc12)C(=O)N[C@@H](CCCCNC(=O)/C=C\c1ccc(C(F)(F)F)cc1)C(=O)N[C@@H](CC(=O)O)C(=O)N[C@@H](Cc1ccccc1)C(N)=O (Boc-WK(X15)DF-NH2)	220	55	60
CC(C)(C)OC(=O)N[C@@H](Cc1c[nH]c2ccccc12)C(=O)N[C@@H](CCCCNC(=O)CCc1ccc(O)cc1)C(=O)N[C@@H](CC(=O)O)C(=O)N[C@@H](Cc1ccccc1)C(N)=O (Boc-WK(Desaminotyrosyl)DF-NH2)	120	92	77

Source: ChEMBL document CHEMBL1126058, “Development of potent and selective CCK-A receptor agonists from Boc-CCK-4: tetrapeptides containing Lys(N epsilon)-amide residues” (J Med Chem, 1992)
